Laboratory results: PMC12680861, “Comparative analysis of LJ-4378 and tirzepatide in mouse models of obesity and weight regain” (Archives of Pharmacal Research, 2025)

What was measured:
[1] = target: CYP3A4 (Homo sapiens, UniProt P08684); test: CYP enzyme inhibition in pooled human liver microsomes (midazolam substrate); conditions: at 10 µM, 15 min
Protocol: (§1) Cytochrome 450 (CYP) enzyme inhibition was evaluated using pooled human liver microsomes (Corning, #452117). […] Substrates and corresponding metabolites for each CYP isoform were as follows: phenacetin and acetaminophen for CYP1A2 (Sigma Aldrich, #77440 and A7085, respectively), diclofenac and 4'-hydroxydiclofenac for CYP2C9 (Sigma Aldrich, D6899; TRC, H825225), S-mephenytoin and 4'-hydroxymephenytoin for CYP2C19 (Sigma Aldrich, UC175; Santacruz, sc210197), dextromethorphan and dextrorphan for CYP2D6 (Sigma Aldrich, #81091 and UC205), and midazolam and 1'-hydroxymidazolam for CYP3A4 (KFDA; Sigma Aldrich, UC430).
(§2) Samples were preincubated at 37 °C for 5 min, and the reaction was initiated by the addition of the NADPH regeneration system, followed by incubation at 37 °C for 15 min. The reaction was terminated by adding acetonitrile containing the internal standard, and centrifuged at 15,000 rpm for 5 min at 4 °C. The supernatant was analyzed by LC–MS/MS using a Nexera XR system (Shimadzu, Japan) coupled with a TSQ Vantage mass spectrometer (Thermo, USA). […] Metabolites were quantified in multiple reaction monitoring (MRM) mode with Xcalibur software (version 4.4).
(§3) All experiments were performed in duplicate with variability ≤ 15%. The percent activity of each CYP enzyme was calculated based on metabolite formation relative to the no-inhibitor control.

[2] = Tissue partition coefficient extrapolated from rat via plasma unbound fractions
Protocol: (§4) When calculating KP,T for LJ-4378 in […], Eq. (1) was used:1 KP,T=CT,ss/Cp,ss where CT,ss and Cp,ss represented the tissue and plasma concentrations at 270 min after the initiation of LJ-4378 infusion. In addition, under the free-drug hypothesis, the KP,T can be expressed as the ratio of the unbound fractions in plasma ( fup ) and tissue ( fu,T ) [Eq. (2)]. Given similar interspecies values of tissue unbound fraction (Poulin and Theil [2000]), the rat KP,T values were extrapolated to those in mice and humans using the following Eq. (3):2 KP,T=fup/fu,T 3 KP,T,extrapolated=KP,T,rat×fup/fup,rat

[3] = Plasma stability assay; format: in vitro ADME, mouse; conditions: 37 °C, 30 min
Protocol: (§5) The plasma stability of LJ-4378 was evaluated using 100% plasma obtained from human (Biochemed, BC22089NCP, sodium citrate), rat (Innovative, IRT-N, sodium citrate), and mouse (Biochemed, 029-APSC-MP, sodium citrate). 10 Μm of LJ-4378 was added to the plasma, and samples were incubated at 37 °C for 0, 30, and 120 min. At each time point, an aliquot of the plasma was removed and mixed with acetonitrile containing the internal standard, chlorpropamide (TRC, C424800). […] The supernatant was injected into the LC–MS/MS system for quantification of the remaining compound. Analysis was performed using a Nexera XR system (Shimadzu, Japan) with a TSQ Vantage mass spectrometer (Thermo, USA). […] Data acquisition was conducted in MRM mode using Xcalibur software (version 4.4). All experiments were performed in duplicate with a deviation within 15%, and the percentage of compound remaining (% Remaining) at each time point was calculated relative to the non-incubated control sample. For quality control, procaine and enalapril (each at 10 μM) were used as reference compounds and were confirmed to fall within acceptable ranges.

[4] = test system: mice; test: Serum markers of hepatic, renal and cardiac toxicity; format: in vivo; conditions: 1 mg/kg, 2 weeks
Protocol: Serum aspartate aminotransferase (AST), alanine aminotransferase (ALT), blood urea nitrogen (BUN), Creatinine, Creatine kinase MB (CKMB), and lactate dehydrogenase (LDH) levels were analyzed with Fujifilm Dri-Chem 3500 s (Fujifilm, Kanagawa, Japan) according to the manufacturer’s instructions. The slides GOT/AST-P III, GPT/ALT-P III, BUN-P III, CRE-P III, CKMB-P, and LDH-P III were used.
a-f. Serum levels of aspartate transaminase (AST), alanine transaminase (ALT), blood urea nitrogen (BUN), creatinine, creatine kinase MB (CKMB), and lactate dehydrogenase (LDH) in 2 weeks of LJ-4378 (1mg/kg) treatment in mice. n = 3. Statistical significance was determined using an unpaired two-tailed t-test.

[5] = target: CYP2C9 (Homo sapiens, UniProt P11712); test: CYP enzyme inhibition in pooled human liver microsomes (diclofenac substrate); conditions: microsomes, 10 µM
Protocol: as §1, §2, §3

[6] = Plasma stability assay; format: in vitro ADME, rat; conditions: 37 °C, 30 min
Protocol: as §5

[7] = target: CYP2C19 (Homo sapiens, UniProt P33261); test: CYP enzyme inhibition in pooled human liver microsomes (S-mephenytoin substrate); conditions: microsomes, 10 µM
Protocol: as §1, §2, §3

[8] = Steady state tissue partition coefficient after I.V. infusion; format: in vivo, SD rats
Protocol: In this study, steady state tissue partition coefficients ( KP,T , i.e., the ratio of tissue to plasma concentrations in steady state) Eq. (1) were determined for LJ-4378 in SD rats. […] Therefore, to ensure a steady state condition, rats received I.V. infusion (i.e., infusion solution, 5% DMSO in normal saline; delivery rate, 10 µL/min; infusion rate, 0.31 µg/µL; total dose of LJ-4378, 0.837 mg per rat) for 270 min (i.e., the time exceeding five times the half-life). Blood samples (~ 150 µL) were collected from the animal at every 10 min from 240 to 270 min for the confirmation of the steady state of the compound. At completion of the last blood collection, rats were sacrificed by decapitation, and four representative tissues (i.e., gonadal adipose, brain, lung, and liver) were harvested. Tissues were then washed four times with ice-Dulbecco’s phosphate-buffered saline (DPBS), weighed, and homogenized in two volumes of DPBS using an Ultra Turrax homogenizer (IKA, Staufen, Germany). Aliquots (50 µL) of plasma and tissue homogenate were mixed with 200 µL ice-cold acetonitrile containing propranolol (100 ng/mL, internal standard). After vortex mixing for 10 min, the mixture was centrifuged at 16,100 × g for 5 min at 4 °C, and 10 µL of the supernatant was injected directly onto the HPLC–MS/MS system. The concentration of LJ-4378 in the biological sample was quantified on an Agilent 1200 HPLC coupled to an API 3200 mass spectrometer with a Phenomenex Luna C18(2) column (3 µm, 100 Å, 50 × 2 mm). Chromatography was performed under isocratic conditions with 80% acetonitrile containing 0.1% formic acid (mobile phase A) and 20% water containing 0.1% formic acid (mobile phase B) at a flow rate of 0.4 mL/min.
as §4

[9] = SD rats (observed), I.V. infusion 270 min

Chain of CYP2C9 (P11712 whole entry): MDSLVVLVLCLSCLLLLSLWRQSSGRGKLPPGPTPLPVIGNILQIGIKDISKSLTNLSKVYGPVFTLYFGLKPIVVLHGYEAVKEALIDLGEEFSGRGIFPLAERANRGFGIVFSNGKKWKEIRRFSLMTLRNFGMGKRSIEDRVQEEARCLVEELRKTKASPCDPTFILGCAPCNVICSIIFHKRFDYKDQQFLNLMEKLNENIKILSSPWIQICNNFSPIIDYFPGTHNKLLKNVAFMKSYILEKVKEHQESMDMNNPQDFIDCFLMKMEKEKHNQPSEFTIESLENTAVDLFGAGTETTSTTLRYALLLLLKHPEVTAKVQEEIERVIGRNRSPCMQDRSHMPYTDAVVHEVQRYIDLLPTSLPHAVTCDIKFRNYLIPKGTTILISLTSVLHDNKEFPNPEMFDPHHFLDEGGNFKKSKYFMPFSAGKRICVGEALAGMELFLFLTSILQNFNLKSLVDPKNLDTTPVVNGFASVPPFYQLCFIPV
Chain of CYP2C19 (P33261 whole entry): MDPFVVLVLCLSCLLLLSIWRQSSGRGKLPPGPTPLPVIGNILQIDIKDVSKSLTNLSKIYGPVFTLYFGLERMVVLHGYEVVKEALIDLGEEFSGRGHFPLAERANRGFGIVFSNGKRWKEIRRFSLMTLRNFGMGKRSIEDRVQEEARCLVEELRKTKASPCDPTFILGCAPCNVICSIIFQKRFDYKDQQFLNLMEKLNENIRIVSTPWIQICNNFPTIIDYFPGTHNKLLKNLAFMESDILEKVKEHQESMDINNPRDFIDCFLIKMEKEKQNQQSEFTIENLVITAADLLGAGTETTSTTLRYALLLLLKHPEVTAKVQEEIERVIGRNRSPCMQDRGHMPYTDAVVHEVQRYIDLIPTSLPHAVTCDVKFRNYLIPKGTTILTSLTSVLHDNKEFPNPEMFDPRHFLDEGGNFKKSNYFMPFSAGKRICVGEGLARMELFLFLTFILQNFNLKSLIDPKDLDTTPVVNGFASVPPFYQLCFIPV
Chain of CYP3A4 (P08684 whole entry, canonical isoform): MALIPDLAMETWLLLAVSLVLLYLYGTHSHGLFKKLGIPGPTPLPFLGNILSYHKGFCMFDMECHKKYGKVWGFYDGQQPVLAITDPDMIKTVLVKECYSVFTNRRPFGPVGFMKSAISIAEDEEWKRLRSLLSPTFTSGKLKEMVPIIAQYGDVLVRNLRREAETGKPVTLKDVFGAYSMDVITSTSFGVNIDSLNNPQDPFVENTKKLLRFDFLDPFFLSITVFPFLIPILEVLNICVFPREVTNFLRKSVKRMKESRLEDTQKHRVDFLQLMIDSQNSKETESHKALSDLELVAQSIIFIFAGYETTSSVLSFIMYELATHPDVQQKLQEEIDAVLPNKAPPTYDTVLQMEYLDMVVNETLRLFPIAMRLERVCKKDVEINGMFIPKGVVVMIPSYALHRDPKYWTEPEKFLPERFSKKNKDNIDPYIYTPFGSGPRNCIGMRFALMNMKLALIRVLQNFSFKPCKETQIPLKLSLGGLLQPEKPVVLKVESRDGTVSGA

CCCCC#Cc1nc(N)c2ncn([C@@H]3SC[C@@H](O)[C@H]3O)c2n1 [LJ-4378]
% of control activity CYP3A4 [1]: 96.9% | Steady state tissue partition coefficient (KP,T), Adipose ([2]; Humans (extrapolated)): 0.200 | Steady state tissue partition coefficient (KP,T), Brain ([2]; Humans (extrapolated)): 0.0443 | Steady state tissue partition coefficient (KP,T), Liver ([2]; Humans (extrapolated)): 1.04 | Steady state tissue partition coefficient (KP,T), Lungs ([2]; Humans (extrapolated)): 0.540 | Steady state tissue partition coefficient (KP,T), Adipose ([2]; Mice (extrapolated)): 0.197 | Steady state tissue partition coefficient (KP,T), Brain ([2]; Mice (extrapolated)): 0.0437 | Steady state tissue partition coefficient (KP,T), Liver ([2]; Mice (extrapolated)): 1.03 | Steady state tissue partition coefficient (KP,T), Lungs ([2]; Mice (extrapolated)): 0.533 | % Remaining compound, Mouse plasma 30 min [3]: 98.4% | hepatic, renal, and cardiac injury markers (AST, ALT, BUN, creatinine, CKMB, LDH) [4]: no evidence of organ toxicity | % of control activity CYP2C9 [5]: 95.8% | % Remaining compound, Rat plasma 30 min [6]: > 100% | % of control activity CYP2C19 [7]: 85.3% | Steady state tissue partition coefficient (KP,T), Adipose [8, 9]: 0.0843 ± 0.00653 | Steady state tissue partition coefficient (KP,T), Liver [8, 9]: 0.440 ± 0.194 | Steady state tissue partition coefficient (KP,T), Lungs [8, 9]: 0.228 ± 0.0793 | partitioning in adipose tissue relative to brain ([8]; SD rats, steady state): over four-fold higher partitioning
